# Measurements reported in US20130197085A1, “AGENT AND METHOD FOR STABILIZING MEMBRANE PROTEIN” (priority 2007, published 2013).
# Target: T1, BSEP expressing on canalicular membrane (Rattus norvegicus, UniProt O70127)
# T1 construct: from tissue; host or cells: liver of male SD rats: in vivo for A27, canalicular membrane vesicles for A28 and A29
# T1 sequence (O70127 1-1321): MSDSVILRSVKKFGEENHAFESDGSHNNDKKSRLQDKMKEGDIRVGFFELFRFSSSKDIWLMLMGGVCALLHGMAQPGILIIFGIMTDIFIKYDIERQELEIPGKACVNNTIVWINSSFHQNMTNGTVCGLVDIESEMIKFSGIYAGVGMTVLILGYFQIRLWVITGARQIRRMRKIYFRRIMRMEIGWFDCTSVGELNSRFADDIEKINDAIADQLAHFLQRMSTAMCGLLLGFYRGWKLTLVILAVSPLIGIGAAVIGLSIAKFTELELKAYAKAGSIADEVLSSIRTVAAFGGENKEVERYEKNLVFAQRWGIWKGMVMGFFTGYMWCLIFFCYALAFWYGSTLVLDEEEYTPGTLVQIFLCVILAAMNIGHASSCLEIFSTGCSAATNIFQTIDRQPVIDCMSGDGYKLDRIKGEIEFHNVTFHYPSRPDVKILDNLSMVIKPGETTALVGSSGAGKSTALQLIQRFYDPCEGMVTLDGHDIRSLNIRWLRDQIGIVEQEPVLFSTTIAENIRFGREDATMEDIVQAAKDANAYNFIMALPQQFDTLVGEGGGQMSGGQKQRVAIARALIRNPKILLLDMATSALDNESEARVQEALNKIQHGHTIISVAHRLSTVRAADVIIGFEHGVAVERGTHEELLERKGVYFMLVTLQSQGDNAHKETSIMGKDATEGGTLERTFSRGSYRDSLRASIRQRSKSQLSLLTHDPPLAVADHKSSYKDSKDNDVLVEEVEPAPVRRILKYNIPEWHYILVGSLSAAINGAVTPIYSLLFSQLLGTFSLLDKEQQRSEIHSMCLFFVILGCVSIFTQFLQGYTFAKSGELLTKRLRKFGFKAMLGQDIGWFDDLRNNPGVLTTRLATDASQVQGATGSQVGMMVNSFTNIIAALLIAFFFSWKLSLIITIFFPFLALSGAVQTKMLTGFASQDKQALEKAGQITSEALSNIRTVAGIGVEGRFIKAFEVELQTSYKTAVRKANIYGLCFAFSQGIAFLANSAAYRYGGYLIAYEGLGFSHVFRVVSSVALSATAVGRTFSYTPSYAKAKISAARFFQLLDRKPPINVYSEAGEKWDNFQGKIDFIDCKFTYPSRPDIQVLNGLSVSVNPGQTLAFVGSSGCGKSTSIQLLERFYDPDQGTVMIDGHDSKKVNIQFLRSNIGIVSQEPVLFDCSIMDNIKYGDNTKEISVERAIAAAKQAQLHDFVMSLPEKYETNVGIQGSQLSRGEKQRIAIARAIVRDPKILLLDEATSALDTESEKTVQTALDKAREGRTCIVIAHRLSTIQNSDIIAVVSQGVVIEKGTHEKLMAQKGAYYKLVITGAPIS
# Test: [^3H] TC injection experiment in vivo with pharmacokinetic analysis
# Parameters: species or system SD rat
# Details: for CLbile, liver / CLbile, plasma / CLtotal / Css, liver / Css, plasma: [^3H] TC, mean ± standard error
# Experimental: Male SD rats (6- to 7-week-old) were purchased from Nippon SLC. All the animals were bred under day-night reversal conditions. They were treated under standard conditions based on the protection of animals. Feed and water were given without any limitation.
# It is to be noted that the present study was carried out in accordance with the guidelines determined by the animal experiment committee in the university. 4PBA or a vehicle was given to each SD rat via a tube, for a certain period of time (5, 10, and 15 days), at various doses ([…]). After completion of the 4PBA treatment, a [^3H] TC injection experiment was carried out in vivo (see Hirano et al., Mol Pharmacol 68: 800-807. 2005). [^3H] TC dissolved in a normal saline was injected into each rat, via a cannula inserted into the femoral vein thereof, at a rate of 70 ng/min/kg for 90 minutes. Blood and bile were collected for a certain period of time. Radioactivity in plasma, bile, and liver was measured.
# The total clearance of plasma (CLtotal) the clearance of bile standardized with circulating plasma (CLbile, plasma), and the clearance of bile standardized with the concentration in the liver (CLbile, liver) were calculated using the following formulae:
# CLbile, plasma=Vss, bile/Css, plasma; and
# CLbile, liver=Vss, bile/Css, liver
# (wherein “I,” “Css, plasma,” Vss, bile” and “Css, and liver” represent, respectively, an injection rate (ng/min/kg), a plasma concentration in a steady state ([…]), a bile elimination rate in a steady state (ng/min/kg), and a mean liver concentration (ng/ml)). The plasma concentration in a steady state (Css, plasma) indicates the mean value of plasma [^3H] TC concentrations at time points of 15, 30, 60, and 90 minutes. The bile elimination rate (Vss, bile) indicates the mean value of the bile elimination rates of [^3H] TC at time points of 10-15 minutes, 25-30 minutes, 55-60 minutes, and 85-90 minutes. The mean liver concentration (Css, liver) indicates the mean value of liver [^3H] TC concentrations at the termination of the in vivo experiment.
# [1] = 4PBA (0.2 g/kg/day), N = 3, SD rats
# [2] = 4PBA (0.6 g/kg/day), N = 9, SD rats
# [3] = 4PBA (2.4 g/kg/day), N = 3, SD rats
structure (smiles),measurement,setting,value
"O=C(O)CCCc1ccccc1 [4PBA, 4-phenylbutyric acid]","CLbile, liver with respect to [^3H] TC, greater than vehicle-treated rats",0.6 k/kg/day for 10 days,2 times
same,"CLbile, plasma with respect to [^3H] TC, 4PBA-treated vs vehicle-treated SD rats",0.6 k/kg/day for 10 days,no significant difference
same,"CLtotal with respect to [^3H] TC, 4PBA-treated vs vehicle-treated SD rats",0.6 k/kg/day for 10 days,no significant difference
same,"Css, liver of [^3H] TC as fraction of that in vehicle-treated SD rats",0.6 k/kg/day for 10 days,½
same,"Css, plasma of [^3H] TC, 4PBA-treated vs vehicle-treated SD rats",0.6 k/kg/day for 10 days,no significant difference
same,"Vss, bile of [^3H] TC, 4PBA-treated vs vehicle-treated SD rats",0.6 k/kg/day for 10 days,no significant difference
same,"CLbile, liver",[1],1.14 ± 0.234 L/h/kg
same,"CLbile, plasma",[1],1.58 ± 0.12 L/h/kg
same,CLtotal,[1],1.6 ± 0.228 L/h/kg
same,"Css, liver",[1],3.8 ± 0.7 ng/mL
same,"Css, plasma",[1],2.6 ± 0.2 ng/mL
same,"CLbile, liver",[2],1.76 ± 0.366 L/h/kg
same,"CLbile, plasma",[2],1.94 ± 0.174 L/h/kg
same,CLtotal,[2],1.84 ± 0.222 L/h/kg
same,"Css, liver",[2],2.6 ± 0.5 ng/mL
same,"Css, plasma",[2],2.0 ± 0.2 ng/mL
same,"CLbile, liver",[3],1.15 ± 0.192 L/h/kg
same,"CLbile, plasma",[3],1.43 ± 0.282 L/h/kg
same,CLtotal,[3],1.78 ± 0.21 L/h/kg
same,"Css, liver",[3],5.9 ± 1.8 ng/mL
same,"Css, plasma",[3],3.3 ± 0.7 ng/mL
same,"CLbile, liver","4PBA (5 days), N = 6, SD rats",1.3 ± 0.18 L/h/kg
same,"CLbile, plasma","4PBA (5 days), N = 6, SD rats",1.94 ± 0.51 L/h/kg
same,CLtotal,"4PBA (5 days), N = 6, SD rats",1.6 ± 0.228 L/h/kg
same,"Css, liver","4PBA (5 days), N = 6, SD rats",3.1 ± 0.5 ng/mL
same,"Css, plasma","4PBA (5 days), N = 6, SD rats",2.3 ± 0.3 ng/mL
same,"CLbile, liver","4PBA (10 days), N = 9, SD rats",1.76 ± 0.366 L/h/kg
same,"CLbile, plasma","4PBA (10 days), N = 9, SD rats",1.94 ± 0.174 L/h/kg
same,CLtotal,"4PBA (10 days), N = 9, SD rats",1.84 ± 0.222 L/h/kg
same,"Css, liver","4PBA (10 days), N = 9, SD rats",2.6 ± 0.5 ng/mL
same,"Css, plasma","4PBA (10 days), N = 9, SD rats",2.0 ± 0.2 ng/mL
same,"CLbile, liver","4PBA (15 days), N = 3, SD rats",1.79 ± 0.09 L/h/kg
same,"CLbile, plasma","4PBA (15 days), N = 3, SD rats",1.99 ± 0.12 L/h/kg
same,CLtotal,"4PBA (15 days), N = 3, SD rats",1.65 ± 0.162 L/h/kg
same,"Css, liver","4PBA (15 days), N = 3, SD rats",2.3 ± 0.2 ng/mL
same,"Css, plasma","4PBA (15 days), N = 3, SD rats",2.1 ± 0.2 ng/mL
same,side effects,"SD rats, under all conditions (various times and doses)",No clear side effects were recognized
